Results on three compounds are retold here after patent US11419335B2, “N-arylated analogues and uses thereof” (University of Florida Research Foundation, Incorporated, priority 2016, dated 2022).

One series has as its system C. albicans SC5314. Briefly: Fungal MIC susceptibility assay, C. albicans. The note with it: Table 4, antifungal. In kind it is cell-based, Candida albicans. As to the method: (§1) Fungal minimum inhibition concentrations (MICs) were determined using standard microdilution methods according to the Clinical and Laboratory Standards Institute document M27-A3. The test compound concentration ranged from 0.01 to 100 μM. Amphotericin B (AmB) and itraconazole (ITC) (Fisher Scientific) were included as positive controls. DMSO, the vehicle control, was used at ≤1% v/v for these experiments. The fungal M27-A3 standard MIC assay protocol requires the following inoculum preparation protocol: The organisms were cultured onto PDA medium at 35° C. The inoculum is prepared by picking five colonies from 24-hour old culture of Candida spp. or 48-hour old culture of C. neoformans. The inoculum was suspended in 5 ml of sterile water, the resulting suspension was vortexed for 15 seconds and the cell density adjusted (by adding more sterile water) to an OD530=0.30, which yields a suspension of 1×10^6 to 5×10^6 cells per mL. The suspension was diluted 50 times and then 20 times using RPMI 1640 medium to obtain the two times test inoculum (1×10^3 to 5×10^3 cells per mL). The following steps are the same with the standard bacterial MIC protocol using 96-well plates. NOTE: RPMI 1640 medium was used in the fungal MIC assay (for both cell inoculum and compound dilution).

For a further series, the system named is C. neoformans ATCC 66031. Briefly: Fungal MIC susceptibility assay, C. neoformans. In kind it is cell-based. The note with it: Table 4, antifungal. As to the method: as §1
Series [1] has as its system methicillin-resistant Staphylococcus epidermidis (MRSE strain ATCC 35984). Kind of series: MIC broth microdilution, MRSE 35984. The series is classed as cell-based. In a few lines:
(§2)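 Values are lowest no-growth concentrations after 16–18 h at 37° C in Luria Broth, inoculum ~10^5 log-phase cells, eleven two-fold dilutions spanning 0.10–100 μM, OD600 used to confirm. DMSO, top 1% v/v, served as vehicle and negative control.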
In general terms: In broth dilution the organism is exposed to a series of concentrations in liquid medium.

The test system of series [2] is vancomycin-resistant Enterococcus faecium (VRE strain ATCC 700221). Kind of series: MIC broth microdilution, VRE 700221. The series is classed as cell-based. In a few lines:
as §2

The test system of the next series is MRSE ATCC 35984 biofilms. Kind of series: Calgary Biofilm Device assay (MBC/MBEC), MRSE 35984. The series is classed as cell-based, Staphylococcus epidermidis. The settings on record: Table 2, CBD assay. As to the method: (§3) The lid of the Calgary device was then removed, washed and transferred to another 96-well plate containing 2-fold serial dilutions of the test compounds (the “challenge plate”). The total volume of media with compound in each well in the challenge plate is 150 μL. […] The lid was then removed from the challenge plate and MBC/MBEC values were determined using different final assays. […] The MBC values were determined as the concentration giving a lack of visible bacterial growth (i.e., turbidity). […] In select experiments, pegs from the Calgary device were removed from lead biofilm eradicators after final incubation, sonicated for 30 minutes in PBS and plated out to determine biofilm cell killing of lead biofilm-eradicating agents (i.e., colony forming unit per milliliter, CFU/mL).
(§4) Using a Calgary Biofilm Device, bacterial biofilms are established on pegs suspended to the bottom of a 96-well plate lid. Following biofilm establishment on lid pegs, lids are then transferred to new 96-well plates containing serial dilutions of test compound and allowed to incubate. After compound treatment, 96-well plate lids with pegs are once again transferred to 96-well plates containing fresh media. During this final phase of the assay, viable biofilms will grow and disperse planktonic cells into the media where they will grow and give a turbid well result. Conversely, wells that have no growth are a result of pegs that had eradicated bacterial biofilms. The lowest concentration at which no turbidity is observed is the minimum biofilm eradication concentration (MBEC). Using the Calgary Biofilm Device, both minimum biofilm eradication concentrations and minimum bactericidal concentrations (MBC) for planktonic bacterial can be determined using one assay from a single bacterial culture (FIG. 3A).

For series [3], the system named is methicillin-resistant Staphylococcus aureus MRSA-2 (clinical isolate). Kind of series: MIC broth microdilution, MRSA-2. The series is classed as cell-based. In a few lines: as §2
Series [4] deals with Pseudomonas aeruginosa (PAO1). Kind of series: MIC broth microdilution, PAO1. The series is classed as cell-based. In a few lines:
as §2

For another series, the system named is MRSA BAA-1707 biofilms. Kind of series: Calgary Biofilm Device assay (MBC/MBEC), MRSA BAA-1707. In kind it is cell-based, Staphylococcus aureus. The settings on record: Table 2, CBD assay. The method, then:
as §3, §4

In series [5] the test system is Klebsiella pneumoniae (ATCC 13883). Kind of series: MIC broth microdilution, K. pneumoniae 13883. In kind it is cell-based. The method, then: (§5) The minimum inhibitory concentration (MIC) for each tested compound was determined by the broth microdilution method as recommended by the Clinical and Laboratory Standards Institute (CLSI). In a 96-well plate, eleven two-fold serial dilutions of each compound were made in a final volume of 100 μL Luria Broth. Each well was inoculated with ˜10^5 bacterial cells at the initial time of incubation, prepared from a fresh log phase culture (OD600 of 0.5 to 1.0 depending on bacterial strain). The MIC was defined as the lowest concentration of compound that prevented bacterial growth after incubating 16 to 18 hours at 37° C. (MIC values were supported by spectrophotometric readings at OD600). DMSO served as our vehicle and negative control in each microdilution MIC assay. DMSO was serially diluted with a top concentration of 1% v/v.
as §5, with “for each compound was” for “for each tested compound was”, “Standards Institute (CLSI).^6 In a” for “Standards Institute (CLSI). In a”, “concentration of test compound that” for “concentration of compound that”, “37° C. The concentration range tested for each compound during this study was 0.10 to 100 μM. DMSO served” for “37° C. (MIC values were supported by spectrophotometric readings at OD600). DMSO served”, “1% v/v. All MIC values were obtained from a minimum of three independent experiments.” for “1% v/v.”

Series [6] has as its system human red blood cells (hRBC). Kind of series: Hemolysis of red blood cells. In kind it is cell-based. As to the method: The washing was repeated three times with the buffer. In a 96-well plate, test compounds were added to the buffer from DMSO stocks. […] The plate was then incubated for 1 hour at 37° C. After incubation, the plate was centrifuged for 5 minutes at 3,500 rpm. Then 80 μL of the supernatant was transferred to another 96-well plate and the optical density (OD) was read at 405 nm. DMSO served as our negative control (0% hemolysis) while Triton X served as our positive control (100% hemolysis). […] All reported data correspond to three independent experiments. Ten-point dose-response curves were generated in 96-well plates to determine 50% hemolysis (HC50 values) of red blood cells.
The washing was repeated three times with the buffer. In 96-well plate, the test compounds were added to the buffer. Then 50 μL of 2% of hRBCs in the buffer were added to the test plate to make the final concentrations ranging from 0.2 to 200 μM of each test compound. The plate was then incubated for 1 hour at 37° C. After incubation, the plate was centrifuged for 5 minutes at 3500 rpm and then 80 μL of the supernatant was transferred to another 96-well plate and the Optical Density (OD) was read at 405 nm. DMSO served as our negative control (0% haemolysis) and Triton X served as our positive control (100% haemolysis). The HC50 (concentration of test compound required to lyse red blood cells by 50%) was calculated by plotting the dose-response curve (not shown) with Graphpad Prism 6.0. All data were obtained from three independent haemolysis experiments.

A further series relates to VRE ATCC 700221 biofilms. Kind of series: Calgary Biofilm Device assay (MBC/MBEC), VRE 700221. The series is classed as cell-based, Enterococcus faecium. The note with it: Table 2, CBD assay. The method, then:
as §3, §4

Series [7] relates to Escherichia coli clinical isolate (UAEC-1). Briefly: MIC broth microdilution, UAEC-1. In kind it is cell-based. As to the method:
as §5
as §5, with “for each compound was” for “for each tested compound was”, “Standards Institute (CLSI).^6 In a” for “Standards Institute (CLSI). In a”, “concentration of test compound that” for “concentration of compound that”, “37° C. The concentration range tested for each compound during this study was 0.10 to 100 μM. DMSO served” for “37° C. (MIC values were supported by spectrophotometric readings at OD600). DMSO served”, “1% v/v. All MIC values were obtained from a minimum of three independent experiments.” for “1% v/v.”

The test system of a further series is MRSA BAA-1707. Kind of series: MIC broth microdilution, MRSA BAA-1707. In kind it is cell-based, Staphylococcus aureus. In a few lines:
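Serial two-fold dilutions (0.10–100 μM) in LB, CLSI broth microdilution format. Inoculum: ~10^5 log-phase cells per well.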

Series [8] has as its system Acinetobacter baumannii (ATCC 1794). Briefly: MIC broth microdilution, A. baumannii 1794. In kind it is cell-based. In a few lines: as §2

Each structure is given as a SMILES string. In brackets after ≈: the same amount, converted by molar mass. Like-named read-outs stand apart in the source and are kept apart here. Marks after values point to notes of the source that are not given here. Bounds are passed on as bounds.

As to `C[C@@H]1[C@H](O)[C@@H](C)/C=C/C=C/C=C/C=C/C=C/C=C/C=C/[C@H](O[C@@H]2O[C@H](C)[C@@H](O)[C@H](N)[C@@H]2O)C[C@@H]2O[C@](O)(C[C@@H](O)C[C@@H](O)[C@H](O)CC[C@@H](O)C[C@@H](O)CC(=O)O[C@H]1C)C[C@H](O)[C@H]2C(=O)O` [Amp. B, Amphotericin B, reference compound], the “MIC C. albicans SC5314” value in the series on C. albicans SC5314 was 0.78 µM (≈ 0.721 µg/mL). Besides, in the series with C. neoformans ATCC 66031, the “MIC C. neof 66031” value was 0.1 µM (≈ 0.0924 µg/mL).

As for `CCCCCCCCCCCC[N+](C)(C)Cc1ccccc1.[Cl-]` [BAC-12, reference compound], the MIC (usually the smallest concentration in the dilution series that meets the test's criterion for growth inhibition) amounted to 3.13 µM in series [1] (Table 1, read-out: MIC MRSE 35984); 3.13 µM in series [1] (Table 2, read-out: MRSE 35984 MIC); 25 µM in series [2] (Table 1, read-out: MIC VRE 700221); 25 µM in [2] (Table 2, read-out: VRE 700221 MIC); 6.25 µM in [3] (MRSA-2 and MRSA BAA-1707, read-out: MIC against two MRSA strains); 6.25 µM in series [3] (Table 1, read-out: MIC MRSA-2). The MIC in series [4] (Table 1) was >100 µM; in series [7] (Table 1) it was 50 µM; in the series on MRSA BAA-1707 (Table 1, read-out: MIC MRSA BAA-1707), 6.25 µM; in the series with MRSA BAA-1707 (Table 2, read-out: MRSA BAA-1707 MIC) it was 6.25 µM. Further, the “MIC MRSE 35984” value in series [1] (Table 4) turned out to be 3.13 µM. Also, in series [2] (Table 4), the “MIC VRE 700221” value was determined as 25 µM. The “MRSE 35984 MBEC” value with MRSE ATCC 35984 biofilms (biofilm) was > 2000 µM. The results for the MBC against MRSE ATCC 35984 biofilms (planktonic cells), against MRSA BAA-1707 biofilms (planktonic cells) and against VRE ATCC 700221 biofilms (planktonic cells) were 11.7 µM, 15.6 µM and 31.3 µM, respectively. Also, the “MIC MRSA-2” value in series [3] (Table 4) was found to be 6.25 µM. Also, the “MIC PAO1” value in series [4] (Table 4) is >100 µM. The “MRSA BAA-1707 MBEC” value in the series with MRSA BAA-1707 biofilms (biofilm) was > 1000 µM. Also, the “MIC K. pneumoniae 13883” value in [5] (Table 1) is 75^a μM. For the same compound, in series [5] (Table 4), the “MIC K. pneu. 13883” value is reported as 75a micromolar. The HC50 (commonly the concentration that lyses half of the red blood cells) in series [6] is > 100 µM. The “VRE 700221 MBEC” value in the series with VRE ATCC 700221 biofilms (biofilm) was determined as 23.5 µM. Further, the “MIC UAEC-1” value in series [7] (Table 4) came to 50 µM. For the same compound, the “MIC MRSA 1707” value in the series on MRSA BAA-1707 (Table 4) came to 6.25 µM. Further, in [8] (Table 1), the “MIC A. baumannii 1794” value is on record as 75^a μM. For the same compound, the “MIC A. bau. 1794” value in series [8] (Table 4) came out at 75a micromolar.

Consider `CCCCCCCCCCCCCCCCn1cc[n+](Cc2ccc(C[n+]3ccn(CCCCCCCCCCCCCCCC)c3C)cc2)c1C` [Compound 28], for which the MIC was > 100 µM in series [1] (Staphylococcus epidermidis, Table 4, read-out: MIC MRSE 35984); > 100 µM in series [2] (Table 4, read-out: MIC VRE 700221); > 100 µM in [3] (Staphylococcus aureus, MRSA, Table 4, read-out: MIC MRSA-2); > 100 µM in [4] (Pseudomonas aeruginosa, PAO1, Table 4); 50 µM with C. albicans SC5314 (Candida albicans, SC5314); 25 µM in the series with C. neoformans ATCC 66031 (Cryptococcus neoformans, ATCC66031, read-out: MIC C. neof 66031). For the same compound, the MIC in series [5] (Klebsiella pneumoniae, ATCC13883, Table 4, read-out: MIC K. pneu. 13883) is > 100 µM; in series [7] (Escherichia coli, Table 4) it was > 100 µM; with MRSA BAA-1707 (Staphylococcus aureus, Table 4, read-out: MIC MRSA 1707), > 100 µM; in series [8] (Acinetobacter baumannii, ATCC1794, Table 4, read-out: MIC A. bau. 1794) it was > 100 µM.
